# How the values were obtained:
# [1] = tested on: c-myc in Human AML MV4-11 cells; assay: Inhibition of cMYC expression (mRNA, real-time PCR) in MV4-11 cells; assay type: cell-based; conditions: 3 h treatment, cMYC mRNA by real-time PCR
# Method: MV4-11 cells (CRL-9591) were plated at a density of 2.5×10^4 cells per well in 96 well U-bottom plates and treated with increasing concentrations of test compound or DMSO (0.1%) in IMDM media containing 10% FBS and penicillin/streptomycin, and incubated for 3 h at 37′C. Triplicate wells were used for each concentration. Cells were pelleted by centrifugation and harvested using the mRNA Catcher PLUS kit according to manufacturer's instructions. The eluted mRNA isolated was then used in a one-step quantitative real-time PCR reaction, using components of the RNA UltraSense™ One-Step Kit (Life Technologies) together with Applied Biosystems TaqMan® primer-probes for cMYC and Cyclophilin. Real-time PCR plates were run on a ViiA™7 real time PCR machine (Applied Biosystems), data was analyzed, normalizing the Ct values for cMYC to an internal control, prior to determining the fold expression of each sample, relative to the control.
# [2] = biological target: Brd4 bromodomain 1 (BRD4(1)) (Homo sapiens, UniProt O60885); assay: Inhibition of tetra-acetylated histone H4 binding to Brd4 bromodomain 1, measured by FRET (HTRF); design: made in house; host or cells: E. coli BL21(DE3); conditions: 2 h at room temperature
# Outline: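 Inhibition was read as a drop in 665 nm relative to 620 nm HTRF signal after 2 h at room temperature, with IC50 from dose-response curves in duplicate wells. Reactions held 200 nM E. coli-expressed His-tagged bromodomain and 25-50 nM biotinylated tetra-acetylated histone H4 peptide. Buffer was 30 mM HEPES pH 7.4 with KF, CHAPS, BSA and 0.2% DMSO.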
# hIL-6 mRNA = assay: Inhibition of hIL-6 mRNA transcription in LPS-stimulated U937 macrophages; assay type: cell-based, Human; conditions: 1 h pretreatment, LPS 3 h; for IC50: Homo sapiens, U-937, PMA-differentiated U937 cells, read-out: IL-6 activity
# Method: Human leukemic monocyte lymphoma U937 cells (CRL-1593.2) were plated at a density of 3.2×10^4 cells per well in a 96-well plate in 100 μL RPMI-1640 containing 10% FBS and penicillin/streptomycin, and differentiated into macrophages for 3 days in 60 ng/mL PMA ([…]) at 37° C. in 5% CO2 prior to the addition of compound. The cells were pretreated for 1 h with increasing concentrations of test compound in 0.1% DMSO prior to stimulation with 1 ug/mL lipopolysaccharide from Escherichia coli. Triplicate wells were used for each concentration. The cells were incubated at 37° C., 5% CO2 for 3 h before the cells were harvested. At time of harvest, media was removed and cells were rinsed in 200 μL PBS. Cells were harvested using the mRNA Catcher PLUS kit according to manufacturer's instructions. The eluted mRNA was then used in a one-step quantitative real-time PCR reaction using components of the RNA UltraSense™ One-Step Kit (Life Technologies) together with Applied Biosystems TaqMan® primer-probes for hIL-6 and Cyclophilin. Real-time PCR plates were run on a ViiA™7 real time PCR machine (Applied Biosystems), data was analyzed, normalizing the Ct values for hlL-6 to an internal control, prior to determining the fold expression of each sample, relative to the control.
# Human AML MV-4-11 cells = assay: Inhibition of cell proliferation in MV4-11 cells (CellTiter Aqueous One); assay type: cell-based; conditions: MV4-11, 72 h
# Method: MV4-11 cells (CRL-9591) were plated at a density of 5×10^4 cells per well in 96 well flat bottom plates and treated with increasing concentrations of test compound or DMSO (0.1%) in IMDM media containing 10% FBS and penicillin/streptomycin. Triplicate wells were used for each concentration and a well containing only media was used as a control. Plates were incubated at 37° C., 5% CO2 for 72 h before adding 20 µL of the CellTiter Aqueous One Solution (Promega) to each well and incubated at 37° C., 5% CO2 for an additional 3-4 h. The absorbance was read at 490 nm in a spectrophotometer and the percentage of cell titer relative to DMSO-treated cells was calculated after correcting for background by subtracting the blank well's signal. IC50 values were calculated using the GraphPad Prism software.
SMILES,IC50 [1] [nM],IC50 [2] [nM],IC50 (hIL-6 mRNA) [nM],IC50 (Human AML MV-4-11 cells) [nM],IL-6 activity (hIL-6 mRNA; PMA-differentiated U937 cells)
"Cc1noc(C)c1-c1cc(-c2cccc(C(N)=O)c2)c2nc[nH]c2c1 [Example Compound 36, 3-(6-(3,5-dimethyl-isoxazol-4-yl)-1H-benzo[d]imidazol-4-yl)benzamide]",300 to 3000,≤ 300,300 to 3000,300 to 3000,
"Cc1noc(C)c1-c1cc(NCc2ccc(F)cc2)c2nc[nH]c2c1 [Example Compound 38, 6-(3,5-dimethyl-isoxazol-4-yl)-N-(4-fluorobenzyl)-1H-benzo[d] imidazol-4-amine]",300 to 3000,≤ 300,300 to 3000,300 to 3000,
"Cc1conc1Nc1cc(-c2c(C)noc2C)cc2[nH]cnc12 [Example Compound 44, N-(6-(3,5-dimethyl-isoxazol-4-yl)-1H-benzo[d]imidazol-4-yl)-4-methyl-isoxazol-3-amine]",300 to 3000,300 to 3000,300 to 3000,300 to 3000,
"COc1ccc(C)cc1-c1cc(-c2c(C)noc2C)cc2[nH]cnc12 [Example Compound 51, 4-(4-(2-methoxy-5-methyl-phenyl)-1H-benzo[d]midazol-6-yl)-3,5-dimethyl isoxazole]",300 to 3000,≤ 300,300 to 3000,300 to 3000,
"Cc1nc2c(-c3csnc3C)cc(-c3c(C)noc3C)cc2[nH]1 [Example Compound 52, 3,5-dimethyl-4-(2-methyl-7-(3-methyliso-thiazol-4-yl)-1H-benzo[d]imidazol-5-yl)isoxazole]",300 to 3000,≤ 300,300 to 3000,300 to 3000,
"Cc1nc2c(-c3cnccc3C)cc(-c3c(C)noc3C)cc2[nH]1 [Example Compound 53, 3,5-dimethyl-4-(2-methyl-4-(4-methyl-pyridin-3-yl)-1H-benzo[d]imidazol-6-yl)isoxazole]",300 to 3000,≤ 300,≤ 300,300 to 3000,
"Cc1noc(C)c1-c1cc(-c2c(C)noc2C)c2c(cnn2C)c1 [Example Compound 54, 4,4′-(1-methyl-1H-indazole-5,7-diyl)bis(3,5-dimethylisoxazole)]",300 to 3000,≤ 300,300 to 3000,≤ 300,
"Cc1noc(C)c1-c1cc(-c2c(C)noc2C)c2nn(C)cc2c1 [Example Compound 55, 4,4′-(2-methyl-2H-indazole-5,7-diyl)bis(3,5-dimethylisoxazole)]",300 to 3000,≤ 300,300 to 3000,300 to 3000,
"CC(=O)Nc1ccccc1-c1cc(-c2c(C)noc2C)cc2[nH]c(C)nc12 [Example Compound 64, N-(2-(6-(3,5-dimethyl-isoxazol-4-yl)-2-methyl-1H-benzo[d]imidazol-4-yl)phenyl) acetamide]",300 to 3000,≤ 300,≤ 300,300 to 3000,
"CNC(=O)c1onc(C)c1-c1cc(-c2c(C)noc2C)cc2[nH]c(C)nc12 [Example Compound 67, 4-(5-(3,5-dimethyl-isoxazol-4-yl)-2-methyl-1H-benzo[d]imidazol-7-yl)-N,3-dimethyl isoxazole-5-carboxamide]",300 to 3000,≤ 300,,3000 to 30000,Not active
"Cc1nc2c(-c3ccccc3S(C)(=O)=O)cc(-c3c(C)noc3C)cc2[nH]1 [Example Compound 69, 3,5-dimethyl-4-(2-methyl-4-(2-(methyl-sulfonyl)phenyl)-1H-benzo[d]imidazol-6-yl)isoxazole]",300 to 3000,≤ 300,300 to 3000,300 to 3000,
"COc1ccncc1-c1cc(-c2c(C)noc2C)cc2[nH]c(C)nc12 [Example Compound 72, 4-(4-(4-methoxy-pyridin-3-yl)-2-methyl-1H-benzo[d]imidazol-6-yl)-3,5-dimethyl isoxazole]",300 to 3000,≤ 300,300 to 3000,300 to 3000,
"Cc1nc2c(-c3cc(C(N)=O)ccc3C)cc(-c3c(C)noc3C)cc2[nH]1 [Example Compound 74, 3-(6-(3,5-dimethyl-isoxazol-4-yl)-2-methyl-1H-benzo[d]imidazol-4-yl)-4-methyl benzamide]",300 to 3000,≤ 300,300 to 3000,300 to 3000,
"Cc1noc(C)c1-c1cc(-c2c(C)noc2C)c2[nH]c(CC(F)(F)F)nc2c1 [Example Compound 76, 4,4′-(2-(2,2,2-trifluoro-ethyl)-1H-benzo[d]imidazole-5,7-diyl)bis(3,5-dimethylisoxazole)]",300 to 3000,≤ 300,300 to 3000,300 to 3000,

# Further lines, with some results ahead:
IC50 [1] [nM],IC50 [2] [nM],IC50 (hIL-6 mRNA) [nM],IC50 (Human AML MV-4-11 cells) [nM],SMILES,IL-6 activity (hIL-6 mRNA; PMA-differentiated U937 cells)
300 to 3000,≤ 300,300 to 3000,3000 to 30000,"Cc1noc(C)c1-c1cc(NCc2ccccc2)c2nncn2c1 [Example Compound 24, N-benzyl-6-(3,5-dimethylisoxazol-4-yl)-[1,2,4]triazolo[4,3-o]pyridin-8-amine]",
300 to 3000,300 to 3000,300 to 3000,300 to 3000,"COc1ccc(Nc2cc(-c3c(C)noc3C)cc3[nH]cnc23)cc1 [Example Compound 25, 6-(3,5-dimethylisoxazol-4-yl)-N-(4-methoxyphenyl)-1H-benzo[d]imidazol-4-amine]",
300 to 3000,≤ 300,≤ 300,300 to 3000,"Cc1ncsc1-c1cc(-c2c(C)noc2C)cc2[nH]cnc12 [Example Compound 26, 3,5-dimethyl-4-(4-(4-methylthiazol-5-yl)-1H-benzo[d]imidazol-6-yl)isoxazole]",
300 to 3000,300 to 3000,300 to 3000,300 to 3000,"Cc1noc(C)c1-c1cc(-c2ccccc2CN(C)C)c2nc[nH]c2c1 [Example Compound 28, 1-(2-(6-(3,5-dimethyl-isoxazol-4-yl)-1H-benzo[d]imidazol-4-yl)phenyl)-N,N-dimethyl methanamine]",
300 to 3000,≤ 300,300 to 3000,300 to 3000,"Cc1noc(C)c1-c1cc(Nc2cccc(F)c2)c2nc[nH]c2c1 [Example Compound 32, 6-(3,5-dimethyl-isoxazol-4-yl)-N-(3-fluorophenyl)-1H-benzo[d] imidazol-4-amine]",
300 to 3000,≤ 300,300 to 3000,300 to 3000,"COc1cccc(Nc2cc(-c3c(C)noc3C)cc3[nH]cnc23)c1 [Example Compound 33, 6-(3,5-dimethyl-isoxazol-4-yl)-N-(3-methoxy-phenyl)-1H-benzo[d] imidazol-4-amine]",
300 to 3000,≤ 300,300 to 3000,300 to 3000,"Cc1noc(C)c1-c1cc(-c2c(C)noc2C)c2nc(C(F)(F)F)[nH]c2c1 [Example Compound 34, 4,4′-(2-(trifluoromethyl)-1H-benzo[d]imidazole-4,6-diyl)bis(3,5-dimethylixaole)]",
300 to 3000,≤ 300,300 to 3000,300 to 3000,"Cc1noc(C)c1-c1cc(NCc2cccnc2)c2nc[nH]c2c1 [Example Compound 35, 6-(3,5-dimethyl-isoxazol-4-yl)-N-(pyridin-3-ylmethyl)-1H-benzo[d] imidazol-4-amine]",

# Reference: patent publication US9999616B2 (ZENITH EPIGENETICS LTD., priority 2013, dated 2018)
